Results published in US7429616B2, “Synthesis and complete stereochemical assignment of psymberin/irciniastatin for use as antitumor compounds” (Board of Regents, University of Texas System, priority 2005, dated 2008).

Key:
Type in all cases: cell-based, human
Conditions in all cases: average of three experiments, concentration range 0.2 nM to 20 μM; for GI50 / LC50: Homo sapiens; for GI50: read-out: GI50 (concentration that inhibits 50% growth); for LC50: read-out: LC50 (concentration that kills 50% of the cells)
[1] = tested on: SK-MEL-5; assay: Cytotoxicity, CellTiter-Glo Luminescent Cell Viability Assay, SK-MEL-5
Method: (§1) The cytotoxicities of compounds 28-a, 28-b, and 29-a were evaluated against the human cancer cell lines HeLa, SK-MEL-5, and SK-MEL-28. The cytotoxicity evaluations were performed, over a concentration range of 0.2 nM to 20 μM, using the CellTiter-Glo™ Luminescent Cell Viability Assay, a product of Promega Corporation (Madison, Wis. USA), according to the protocol detailed in Promega's Technical Bulletin No. 288. Each value is the average value obtained from three experiments. GI50 is the concentration that inhibits 50% growth; TGI is the concentration that inhibits 100% growth; and LC50 is the concentration that kills 50% of the cells.

[2] = tested on: SK-MEL-28; assay: Cytotoxicity, CellTiter-Glo Luminescent Cell Viability Assay, SK-MEL-28
Method: as §1

[3] = tested on: HeLa; assay: Cytotoxicity, CellTiter-Glo Luminescent Cell Viability Assay, HeLa
Method: as §1

C=C(C)C[C@@H](OC)[C@H](O)C(=O)N[C@@H](OC)[C@@H]1C[C@@H](O)C(C)(C)C(CC(O)[C@@H](C)C2Cc3c(C)c(O)cc(O)c3C(=O)O2)O1 (stereo partly drawn) [Compound 29-a]
GI50 [1]: 300 nM | LC50 [1]: 1700 nM | TGI (concentration that inhibits 100% growth) [1]: 800 nM | GI50 [2]: 200 nM | LC50 [2]: 1100 nM | TGI (concentration that inhibits 100% growth) [2]: 550 nM | GI50 [3]: 60 nM | LC50 [3]: 900 nM | TGI (concentration that inhibits 100% growth) [3]: 200 nM

C=C(C)C[C@H](OC)[C@H](O)C(=O)N[C@H](OC)[C@@H]1C[C@@H](O)C(C)(C)C(CC(O)[C@@H](C)C2Cc3c(C)c(O)cc(O)c3C(=O)O2)O1 (stereo partly drawn) [Compound 28-b]
GI50 [1]: 300 nM | LC50 [1]: 1100 nM | TGI (concentration that inhibits 100% growth) [1]: 700 nM | GI50 [2]: 110 nM | LC50 [2]: 900 nM | TGI (concentration that inhibits 100% growth) [2]: 400 nM | GI50 [3]: 80 nM | LC50 [3]: 900 nM | TGI (concentration that inhibits 100% growth) [3]: 200 nM

C=C(C)CC(OC)[C@H](O)C(=O)N[C@@H](OC)[C@@H]1C[C@@H](O)C(C)(C)[C@@H](C[C@H](O)C(C)C2Cc3c(C)c(O)cc(O)c3C(=O)O2)O1 (stereo partly drawn) [Compound 28-a, psymberin]
GI50 [1]: 0.3 nM | LC50 [1]: 1.3 nM | TGI (concentration that inhibits 100% growth) [1]: 0.7 nM | GI50 [2]: 0.23 nM | LC50 [2]: 1.2 nM | TGI (concentration that inhibits 100% growth) [2]: 0.7 nM | GI50 [3]: 0.23 nM | LC50 [3]: 1.6 nM | TGI (concentration that inhibits 100% growth) [3]: 0.90 nM
